According to US10906897B2, “Microbiocidal heterobicyclic derivatives” (priority 2015, dated 2021):

Assays:
[1] = test system: Botryotinia fuckeliana (Botrytis cinerea); test: Botryotinia fuckeliana (Botrytis cinerea) / liquid culture (Gray mould); assay type: cell-based; details: growth inhibition photometrically 3-4 days after application, compared to untreated control
[2] = test system: Glomerella lagenarium (Colletotrichum lagenarium); test: Glomerella lagenarium (Colletotrichum lagenarium) / liquid culture (Anthracnose); assay type: cell-based; details: Colletotrichum orbiculare, growth inhibition photometrically 3-4 days after application, compared to untreated control
[3] = test system: Monographella nivalis (Microdochium nivale); test: Monographella nivalis (Microdochium nivale) / liquid culture (foot rot cereals); assay type: cell-based; details: 96 h, growth inhibition photometrically 4-5 days after application, compared to untreated control
Fusarium culmorum = test: microbe, parasite or virus in culture; assay type: cell-based; details: read-out: control of Fusarium culmorum
[4] = test system: Magnaporthe grisea (Pyricularia oryzae); test: microbe, parasite or virus in culture; assay type: cell-based; details: read-out: control of Magnaporthe grisea

Row | Structure (SMILES) | inhibition of growth at 20 ppm [1] [%] | inhibition of growth at 20 ppm [2] [%] | melting point [°C] | further results
1 | CC1(C)Cc2c(Br)cccc2C(c2cnn3ccccc23)=N1 [Compound E-60, 5-bromo-3,3-dimethyl-1-pyrazolo[1,5-a]pyridin-3-yl-4H-isoquinoline] | ≥ 80 |  |  | 
2 | CC1(C)Cc2c(F)cccc2C(c2cnc3c(Br)cccn23)=N1 [Compound E-16, 1-(8-bromoimidazo[1,2-a]pyridin-3-yl)-5-fluoro-3,3-dimethyl-4H-isoquinoline] |  | ≥ 80 | 179 to 181 | 
3 | CC1(C)N=C(c2cnc3c(Br)cccn23)c2ccccc2C1=O |  |  | 204 to 205 | 
4 | C#Cc1cccn2c(C3=NC(C)(C)C(C)(C)c4c(F)cccc43)cnc12 [Compound E-23, 1-(8-ethynylimidazo[1,2-a]pyridin-3-yl)-5-fluoro-3,3,4,4-tetramethyl-isoquinoline] | ≥ 80 |  | 169 to 170 | 
5 | CC1(C)N=C(c2cnc3c(F)cccn23)c2cccc(F)c2C1Br (stereo not shown) |  |  | 211 to 212 | 
6 | CC1(C)N=C(c2cnc3c(Br)cccn23)c2cccc(F)c2C1=O |  |  | 146 to 147 | 
7 | CC1(C)N=C(c2cnc3c(Br)cccn23)c2ccccc2C1(F)F |  |  | 173 | 
8 | CC1(C)N=C(c2cnc3ccccn23)c2cc(F)ccc2C1(C)C [Compound E-2, 7-fluoro-1-imidazo[1,2-a]pyridin-3-yl-3,3,4,4-tetramethyl-isoquinoline] |  | ≥ 80 |  | 
9 | COc1cccn2c(C3=NC(C)(C)C(C)(C)c4c(F)cccc43)cnc12 [Compound E-24, 5-fluoro-1-(8-methoxyimidazo[1,2-a]pyridin-3-yl)-3,3,4,4-tetramethyl-isoquinoline] | ≥ 80 | ≥ 80 | 130 | inhibition of growth at 20 ppm [3]: ≥ 80%
10 | Cc1cccn2ncc(C3=NC(C)(C)C(=O)c4ccccc43)c12 [Compound E-68, 3,3-dimethyl-1-(4-methylpyrazolo[1,5-a]pyridin-3-yl)isoquinolin-4-one] | ≥ 80 |  | 140 to 141 | 
11 | CC1(C)N=C(c2cnc3c(Br)cccn23)c2cccc(F)c2C1Br (stereo not shown) |  |  | 217 to 218 | 
12 | Cc1nc2c(C)cccn2c1C1=NC(C)(C)C(C)(C)c2c(F)cccc21 [Compound E-40, 1-(2,8-dimethylimidazo[1,2-a]pyridin-3-yl)-5-fluoro-3,3,4,4-tetramethyl-isoquinoline] | ≥ 80 | ≥ 80 |  | 
13 | CC1(C)Cc2c(F)cccc2C(c2cnc3c(F)cccn23)=N1 [Compound E-10, 5-fluoro-1-(8-fluoroimidazo[1,2-a]pyridin-3-yl)-3,3-dimethyl-4H-isoquinoline] | ≥ 80 | ≥ 80 |  | 
14 | Cc1ccn2c(C3=NC(C)(C)C(C)(C)c4c(F)cccc43)cnc2c1Cl [Compound E-47, 1-(8-chloro-7-methyl-imidazo[1,2-a]pyridin-3-yl)-5-fluoro-3,3,4,4-tetramethyl-isoquinoline] | ≥ 80 | ≥ 80 | 185 to 186 | inhibition of growth at 20 ppm (Fusarium culmorum): ≥ 80%
15 | CC1(C)N=C(c2cnc3c(Cl)cccn23)c2cccc(F)c2C1(C)C [Compound E-32, 1-(8-chloroimidazo[1,2-a]pyridin-3-yl)-5-fluoro-3,3,4,4-tetramethyl-isoquinoline] | ≥ 80 | ≥ 80 | 167 to 168 | inhibition of growth at 20 ppm (Fusarium culmorum): ≥ 80%
16 | COc1ccn2c(C3=NC(C)(C)C(C)(C)c4c(F)cccc43)cnc2c1 [Compound E-48, 5-fluoro-1-(7-methoxyimidazo[1,2-a]pyridin-3-yl)-3,3,4,4-tetramethyl-isoquinoline] | ≥ 80 | ≥ 80 | 139 to 140 | 
17 | CC1(C)N=C(c2cnc3c(Cl)c(Cl)ccn23)c2ccccc2C1(F)F [Compound E-56, 1-(7,8-dichloroimidazo[1,2-a]pyridin-3-yl)-4,4-difluoro-3,3-dimethyl-isoquinoline] | ≥ 80 |  | > 210 | inhibition of growth at 60 ppm [4]: ≥ 80%
18 | CC1(C)N=C(c2cnc3c(F)cccn23)c2cccc(Cl)c2C1Br (stereo not shown) |  |  | 213 to 214 | 
19 | CC1(C)N=C(c2cnc3c(F)cccn23)c2cccc(F)c2C1O (stereo not shown) [Compound E-14, 5-fluoro-1-(8-fluoroimidazo[1,2-a]pyridin-3-yl)-3,3-dimethyl-4H-isoquinolin-4-ol] |  | ≥ 80 | 219 | 
20 | CC1(C)Cc2c(Cl)cccc2C(c2cnc3ccccn23)=N1 [Compound E-3, 5-chloro-1-imidazo[1,2-a]pyridin-3-yl-3,3-dimethyl-4H-isoquinoline] |  | ≥ 80 |  | 
21 | CC1(C)N=C(c2cnc3c(OC(F)F)cccn23)c2cccc(F)c2C1(C)C [Compound E-7, 1-[8-(difluoromethoxy)imidazo [1,2-a]pyridin-3-yl]-5-fluoro-3,3,4,4-tetramethyl-isoquinoline] | ≥ 80 | ≥ 80 | 121 to 122 | 

Row | Structure (SMILES) | inhibition of growth at 20 ppm [1] [%] | inhibition of growth at 20 ppm [2] [%] | melting point [°C] | further results
22 | CC1(C)N=C(c2cnc3ccc(F)cn23)c2cccc(F)c2C1(C)C |  |  | 200 to 202 | 
23 | CC1(C)N=C(c2cnc3c(F)cccn23)c2cccc(F)c2C1(F)F [Compound E-19, 4,4,5-trifluoro-1-(8-fluoroimidazo[1,2-a]pyridin-3-yl)-3,3-dimethyl-isoquinoline] | ≥ 80 | ≥ 80 | 145 to 146 | 
24 | Cc1nn2ccccc2c1C1=NC(C)(C)C(C)(C)c2c(F)cccc21 [Compound E-62, 5-fluoro-3,3,4,4-tetramethyl-1-(2-methylpyrazolo[1,5-a]pyridin-3-yl)isoquinoline] | ≥ 80 | ≥ 80 |  | 
25 | CC1(C)N=C(c2cnc3cc(C#N)ccn23)c2cccc(F)c2C1(C)C [Compound E-46, 3-(5-fluoro-3,3,4,4-tetramethyl-1-isoquinolyl)imidazo[1,2-a]pyridine-7-carbonitrile] | ≥ 80 | ≥ 80 | 193 to 194 | 
26 | CC1(C)N=C(c2cnc3c(C(F)(F)F)cccn23)c2cccc(F)c2C1(C)C [Compound E-29, 5-fluoro-3,3,4,4-tetramethyl-1-[8-(trifluoromethyl)imidazo [1,2-a]pyridin-3-yl]isoquinoline] | ≥ 80 | ≥ 80 | 141 to 142 | inhibition of growth at 20 ppm [3]: ≥ 80%
27 | CC1(C)Cc2c(Cl)cccc2C(c2cnc3c(F)cccn23)=N1 [Compound E-11, 5-chloro-1-(8-fluoroimidazo[1,2-a]pyridin-3-yl)-3,3-dimethyl-4H-isoquinoline] | ≥ 80 | ≥ 80 | 122 to 123 | 
28 | CC1(C)N=C(c2cnc3c(Br)cccn23)c2cccc(F)c2C1O (stereo not shown) |  |  | 204 to 205 | 
29 | Cc1ccc2c(C3=NC(C)(C)C(F)(F)c4ccccc43)cnn2c1C |  |  | 160 to 161 | 
30 | CSc1cccn2c(C3=NC(C)(C)Cc4c(F)cccc43)cnc12 [Compound E-17, 5-fluoro-3,3-dimethyl-1-(8-methylsulfanyl-imidazo[1,2-a]pyridin-3-yl)-4H-isoquinoline] |  | ≥ 80 | 119 to 120 | 
31 | Cc1cccn2ncc(C3=NC(C)(C)C(=O)c4cc(F)ccc43)c12 [Compound E-75, 6-fluoro-3,3-dimethyl-1-(4-methylpyrazolo[1,5-a]pyridin-3-yl)isoquinolin-4-one] | ≥ 80 |  | 180 to 183 | 
32 | CC1(C)Cc2c(Cl)cccc2C(c2cnc3ccc(F)cn23)=N1 |  |  | 142 to 143 | 
33 | Cc1cccn2ncc(C3=NC(C)(C)C(=O)c4c(F)cccc43)c12 |  |  | 141 to 143 | 
34 | CC1(C)N=C(c2cnn3cccc(Br)c23)c2ccccc2C1=O |  |  | 148 to 151 | 
35 | CC1(C)Cc2c(Cl)cccc2C(c2cnc3c(OC(F)F)cccn23)=N1 [Compound E-15, 5-chloro-1-[8-(difluoromethoxy)imidazo [1,2-a]pyridin-3-yl]-3,3-dimethyl-4H-isoquinoline] |  |  | 114 to 115 | inhibition of growth at 20 ppm [3]: ≥ 80%
36 | CCc1cccn2c(C3=NC(C)(C)C(C)(C)c4c(F)cccc43)cnc12 [Compound E-21, 1-(8-ethylimidazo[1,2-a]pyridin-3-yl)-5-fluoro-3,3,4,4-tetramethyl-isoquinoline] | ≥ 80 | ≥ 80 |  | inhibition of growth at 20 ppm [3]: ≥ 80%; inhibition of growth at 20 ppm (Fusarium culmorum): ≥ 80%
37 | CC1(C)N=C(c2cnc3ccc(O)cn23)c2cccc(F)c2C1(C)C |  |  | 321 to 322 | 
38 | CC1(C)N=C(c2cnc3c(O)cccn23)c2cccc(F)c2C1(C)C [Compound E-27, 3-(5-fluoro-3,3,4,4-tetramethyl-1-isoquinolyl)imidazo[1,2-a]pyridin-8-ol] | ≥ 80 | ≥ 80 | 271 to 272 | 
39 | CC1(C)N=C(c2cnc3c(F)cccn23)c2cccc(F)c2C1=O |  |  | 160 to 161 | 
40 | CC1(C)N=C(c2cnc3cc(O)ccn23)c2cccc(F)c2C1(C)C [Compound E-49, 3-(5-fluoro-3,3,4,4-tetramethyl-1-isoquinolyl)imidazo[1,2-a]pyridin-7-ol] | ≥ 80 | ≥ 80 | 246 to 247 | 
41 | Cc1cccc2ncc(C3=NC(C)(C)C(C)(C)c4c(F)cccc43)n12 [Compound E-30, 5-fluoro-3,3,4,4-tetramethyl-1-(5-methylimidazo[1,2-a]pyridin-3-yl)isoquinoline] | ≥ 80 | ≥ 80 | 139 to 140 | 
42 | CC1(C)Cc2ccccc2C(c2cnc3cc(I)ccn23)=N1 |  |  | 190 to 193 | 
